Results from article PMC10856454, “Discovery of Novel Antitumor Small-Molecule Agent with Dual Action of CDK2/p-RB and MDM2/p53” (Molecules, 2024).

Experiments:
[1] = system: OVCAR3 cells; assay: Cell proliferation assay (Celltiter-Glo), OVCAR3; format: cell-based; conditions: Homo sapiens, OVCAR-3, 120 h; OVCAR3 (overexpression of CCNE1), five days
Method: (§1) Celltiter-Glo Luminescent Cell Viability Assay (Promega, Madison, WI, USA) was used to detect cell viability according to the manufacturer’s instructions. This assay is a homogeneous method of determining the number of viable cells in a culture based on quantitation of the ATP present, an indicator of metabolically active cells. Cells were digested and paved in white-bottomed 96-well plates with 1000 cells/100 μL cell suspension solution; then, different concentrations of compounds were added the next day. TOV-21G and HCT116 were placed in the incubator for three days and OVCAR3 for five days. Then, 100 μL Celltiter-Glo solution was added and mixed for 5 min; the luminous intensity of each well was detected with a spectrophotometer (BioTek, Winooski, VT, USA). The experiment was repeated three times to calculate the cell survival rate.

[2] = system: HCT116 cells; assay: Cell cycle detection by flow cytometry, HCT116; format: cell-based; conditions: 24 h
Method: Cells were plated at 300,000 cells overnight in six-well plates. III-13 was added in a dose-dependent fashion and then cells were incubated for 24 h. The cells were then fixed with 75% ethanol overnight at 4 °C. The cells were centrifuged, and ethanol was removed. The cells were washed twice with 1 × PBS following staining with DAPI (4′, 6′ diamino-2-phenylindole) and analyzed using Guava easyCyte HT (Merck KGaA, Darmstadt, Germany) with a blue filter. Experiments were performed in triplicate.

[3] = system: HCT116 transplanted tumor; assay: Tumor xenograft experiment, nude mouse model of HCT116 transplanted tumor; format: in vivo, Balb/c nude mice
Method: HCT116 cells (1 × 10^6) were implanted into the back of adult male Balb/c nude mice by subcutaneous injection. […] The solvent or drug containing solution was administered daily to the vehicle and dosing groups by intraperitoneal injection (0.2 mL/20 g). Tumor growth was measured every three days during treatment. At the end of the treatment, the mice were killed, and the tumors were removed and weighed.

[4] = molecular target: T1, CDK2 (Homo sapiens, UniProt P24941); assay: Kinase antagonist activity assay (TR-FRET), CDK2; format: biochemical
T1 construct: purchased Thermo Fisher Scientific
Method: (§2) The compounds were solubilized with DMSO (Solarbio Life Sciences, Beijing, China), and 11 concentrations were serially diluted at 3-fold; 100 nL of compound was added to 384-well plates, 5 μL of 2 × enzyme mixture (Thermo Fisher Scientific, Waltham, MA, USA) was added, and 5 μL of buffer was added instead of the complete inhibition control wells. Then, 1000 rpm centrifugation was performed for 30 s followed by a 15 min incubation at 23 °C. Next, 5 μL of 2 × MLight-MBP peptide (PerkinElmer, Waltham, MA, USA) was added to each well, with 1000 rpm centrifugation for 30 s and incubation at 23 °C for 90 min. At the end of the incubation, the reaction was terminated with buffer containing 15 mM EDTA and 2 nM Eu-anti-P-MBP antibody (PerkinElmer, Waltham, MA, USA), centrifuged at 1000 rpm for 1 min, and incubated at 23 °C for 60 min; the plates were read on a Perkin Elmer Envision ([…]).

[5] = molecular target: T2, hERG (Homo sapiens, UniProt Q12809); assay: hERG assay in CHO cells stably expressing hERG; format: cell-based; conditions: maximum concentration of 30 μM
T2 construct: expressed in transfected cells; host or cells: CHO cells
T2 sequence (Q12809 whole entry): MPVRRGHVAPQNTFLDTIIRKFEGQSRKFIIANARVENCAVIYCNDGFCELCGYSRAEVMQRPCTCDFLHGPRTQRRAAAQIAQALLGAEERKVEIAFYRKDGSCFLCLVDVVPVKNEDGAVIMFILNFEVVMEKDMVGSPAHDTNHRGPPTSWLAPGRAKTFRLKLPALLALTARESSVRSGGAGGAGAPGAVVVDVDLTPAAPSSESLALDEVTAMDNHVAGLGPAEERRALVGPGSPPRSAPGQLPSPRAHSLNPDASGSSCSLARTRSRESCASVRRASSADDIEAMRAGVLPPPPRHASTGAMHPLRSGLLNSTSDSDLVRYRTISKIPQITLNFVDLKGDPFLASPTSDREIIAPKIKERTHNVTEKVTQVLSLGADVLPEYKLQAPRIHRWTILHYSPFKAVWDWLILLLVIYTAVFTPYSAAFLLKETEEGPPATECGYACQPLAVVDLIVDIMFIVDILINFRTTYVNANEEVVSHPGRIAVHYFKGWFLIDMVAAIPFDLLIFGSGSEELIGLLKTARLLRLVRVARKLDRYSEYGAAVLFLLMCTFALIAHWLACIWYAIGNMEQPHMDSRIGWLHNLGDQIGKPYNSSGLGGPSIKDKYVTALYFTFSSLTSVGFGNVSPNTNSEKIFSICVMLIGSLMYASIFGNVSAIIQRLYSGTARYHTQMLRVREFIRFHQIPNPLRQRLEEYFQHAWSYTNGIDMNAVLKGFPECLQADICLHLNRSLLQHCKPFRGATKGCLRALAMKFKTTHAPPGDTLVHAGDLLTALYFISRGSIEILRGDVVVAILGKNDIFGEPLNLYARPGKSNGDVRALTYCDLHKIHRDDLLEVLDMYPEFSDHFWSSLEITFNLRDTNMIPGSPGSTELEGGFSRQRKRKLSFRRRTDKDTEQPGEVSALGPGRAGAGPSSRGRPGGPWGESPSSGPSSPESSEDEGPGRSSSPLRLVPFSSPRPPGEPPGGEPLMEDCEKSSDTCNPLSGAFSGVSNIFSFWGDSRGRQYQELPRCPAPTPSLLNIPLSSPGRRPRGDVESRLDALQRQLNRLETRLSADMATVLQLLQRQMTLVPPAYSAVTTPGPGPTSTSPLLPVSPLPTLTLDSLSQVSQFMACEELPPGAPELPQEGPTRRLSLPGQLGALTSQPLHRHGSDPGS
Method: This test method is a reference to a previous study. CHO cells stably expressing hERG were cultured with medium containing 10% FBS, penicillin (100 U/mL), and streptomycin (100 μg/mL) in DMEM/F12 in an incubator at 37 °C, 5% CO2. Cultures were passaged in a 1:5 ratio every 48 h. The medium consisted of 90% F12, 10% FBS, G418 (100 μg/mL), and hygromycin B (100 μg/mL). On the day of the assay, the current should reach a steady state for at least 1 min prior to administration of the compounds, and the test current was measured again after 5 min of stimulation with different concentrations of the drug.

[6] = molecular target: T3, CDK1 (Homo sapiens, UniProt P06493); assay: Kinase antagonist activity assay (TR-FRET), CDK1; format: biochemical
T3 construct: purchased Thermo Fisher Scientific
T3 sequence (P06493 whole entry): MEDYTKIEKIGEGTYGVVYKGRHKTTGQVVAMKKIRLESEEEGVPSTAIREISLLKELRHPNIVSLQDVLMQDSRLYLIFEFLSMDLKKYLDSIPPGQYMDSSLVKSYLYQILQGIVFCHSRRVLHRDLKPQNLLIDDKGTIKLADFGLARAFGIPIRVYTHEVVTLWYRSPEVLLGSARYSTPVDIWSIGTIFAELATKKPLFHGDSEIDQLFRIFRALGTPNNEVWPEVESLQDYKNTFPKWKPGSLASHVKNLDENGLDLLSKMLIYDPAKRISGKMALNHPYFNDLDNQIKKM
T3 sequence (P14635 whole entry partner): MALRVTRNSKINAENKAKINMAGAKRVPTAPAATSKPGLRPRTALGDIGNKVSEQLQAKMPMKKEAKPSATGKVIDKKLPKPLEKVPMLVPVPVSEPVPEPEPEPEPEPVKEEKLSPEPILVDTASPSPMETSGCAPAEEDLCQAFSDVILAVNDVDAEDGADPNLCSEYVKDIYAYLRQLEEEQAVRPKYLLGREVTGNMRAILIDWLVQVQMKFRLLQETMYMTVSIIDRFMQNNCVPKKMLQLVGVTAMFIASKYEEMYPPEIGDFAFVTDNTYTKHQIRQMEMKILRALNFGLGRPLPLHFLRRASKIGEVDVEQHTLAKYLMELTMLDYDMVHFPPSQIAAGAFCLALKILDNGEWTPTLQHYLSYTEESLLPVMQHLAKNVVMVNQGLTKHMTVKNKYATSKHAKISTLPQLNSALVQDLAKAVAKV
Method: as §2

[7] = Liver microsomal stability, rat; format: in vitro ADME; conditions: Rat liver microsomes
Method: (§3) Compounds were incubated with mouse, rat, and human liver microsomal samples and NADPH at 37 °C for 5, 10, 20, 30, or 60 min. The reaction was terminated with a cold acetonitrile solution containing tolbutamide. Compound retention was determined by LC-MS/MS. The retention times, chromatographic acquisition, and chromatographic integration of compounds and positive control substances were analyzed using Analyst (AB Sciex, Framingham, MA, USA).

[8] = Liver microsomal stability, mouse; format: in vitro ADME; conditions: Mice liver microsomes
Method: as §3

[9] = system: HCT116 cells; assay: Cell proliferation assay (Celltiter-Glo), HCT116; format: cell-based; conditions: Homo sapiens, HCT-116, 72 h; HCT116 (overexpression of CCNE1), three days
Method: as §1

[10] = molecular target: T4, CDK4 (Homo sapiens, UniProt P11802); assay: Kinase antagonist activity assay (TR-FRET), CDK4; format: biochemical
T4 construct: purchased Thermo Fisher Scientific
T4 sequence (P11802 whole entry): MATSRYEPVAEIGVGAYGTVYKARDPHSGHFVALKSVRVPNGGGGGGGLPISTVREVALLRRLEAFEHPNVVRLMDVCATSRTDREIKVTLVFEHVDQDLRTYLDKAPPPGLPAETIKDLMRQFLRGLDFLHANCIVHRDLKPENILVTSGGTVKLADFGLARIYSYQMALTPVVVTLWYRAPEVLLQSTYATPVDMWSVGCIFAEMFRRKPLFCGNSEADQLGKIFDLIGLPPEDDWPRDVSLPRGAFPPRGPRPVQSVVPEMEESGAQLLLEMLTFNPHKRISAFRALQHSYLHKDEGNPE
T4 sequence (P24385 whole entry partner): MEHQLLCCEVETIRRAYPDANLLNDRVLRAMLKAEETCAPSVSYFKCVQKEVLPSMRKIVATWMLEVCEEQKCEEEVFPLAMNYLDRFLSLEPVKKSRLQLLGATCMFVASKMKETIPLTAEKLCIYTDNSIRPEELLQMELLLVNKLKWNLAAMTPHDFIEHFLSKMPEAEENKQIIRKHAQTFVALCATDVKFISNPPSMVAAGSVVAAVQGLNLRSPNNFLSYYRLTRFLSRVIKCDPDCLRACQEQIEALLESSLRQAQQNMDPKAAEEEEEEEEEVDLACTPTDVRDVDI
Method: as §2

[11] = Pharmacokinetics study in rats; format: in vivo
Method: The pharmacokinetics study was created as described. […] Approximately 200 μL of whole blood was collected into heparin-coated tubes at 0.083, 0.25, 0.5, 1, 2, 3, 4, 6, 8, 12, and 24 h after dosing. Plasma was collected immediately by centrifugation (8000× g, 5 min, room temperature). Blood was placed in a heparinized Eppendorf™ tube. Plasma was centrifuged, and the concentration of compounds in the sample was determined by LCMS/MS after pre-treatment. Drug-concentration data were processed in a […] using WinNonlin™ 6.3 (Pharsight, Mountain View, CA, USA).

[12] = 50 mg/kg, intraperitoneal daily, 14 days
[13] = both sexes, rat, plasma, iv, 2 mg/kg i.v.
[14] = both sexes, rat, plasma, iv, 2 mg/kg, 2 mg/kg i.v.
[15] = both sexes, rat, plasma, po, 5 mg/kg i.g.
[16] = both sexes, rat, plasma, po, 5 mg/kg, 5 mg/kg i.g.

In the case of `CC1(C)CCN1C(=O)O[C@@H]1CC[C@H](c2cc(NC(=O)Cc3ccc(N4CCCC4=O)cc3)n[nH]2)C1` [III-13], the IC50 [1] is reported as 115 nM, the IC90 [1] is reported as 398 nM and the cell cycle arrest [2] is reported as “arrested HCT116 and OVCAR3 cells in the G0/G1 phase”. The “tumor volume reduced by” value [3, 12] was roughly 69.81%, the “tumor weight reduced by” value [3, 12] was roughly 60.16% and the “weight loss in mice” value ([3]; 14 days of treatment) was “did not cause significant weight loss”. The tumor volume ([3]; both 25 and 50 mg/kg, intraperitoneal daily, 14 days) was “significantly reduced”, the IC50 [4] was 2.6 nM and the IC90 [4] was 26.2 nM. The “cardiotoxicity in hERG assay” value [5] was “no cardiotoxicity”, the IC50 [6] was 528 nM and the IC90 [6] was 5640 nM. For the same molecule, the CLint scaled [7] was 88.9 mL/min/kg, the “Remaining (T = 60 min)” value ([7]; 60 min) was 22.8% and the half-life ([7]; NADPH, 37 °C) was 28.1 min. The “Remaining (T = 60 min)” value ([8]; 60 min) was 1.29%, the CLint scaled ([8]; mouse) was 840 mL/min/kg and the half-life ([8]; mouse, NADPH, 37 °C) was 6.53 min. The IC50 [9] was 60.9 nM, the IC90 [9] was 235 nM and the IC50 [10] was 6240 nM. It also gave an IC90 [10] of 23100 nM, a CL/F ([11]; 2 mg/kg i.v.) of 41.2 mL/min/kg and a Vz/F ([11]; 2 mg/kg i.v.) of 1.3 ± 0.374 L/kg. For the same molecule, the AUClast ([11]; 2 mg/kg i.v., 2 mg/kg) was 2.052 ± 0.337 µM·h, the T1/2 ([11]; 2 mg/kg i.v., 2 mg/kg) was 22.2 ± 7.8 min and the AUClast ([11]; 5 mg/kg i.g., 5 mg/kg) was 0.293 ± 0.0646 µM·h. The T1/2 ([11]; 5 mg/kg i.g., 5 mg/kg) was 50.4 ± 7.2 min, the Cmax [11, 13] was 5500 ± 2310 nM and the MRT last [11, 13] was 27 ± 15 min. The AUC(0-t) [11, 14] was roughly 2.05 µM·h, the half-life [11, 14] was roughly 22.2 min and the bioavailability ([11]; both sexes, rat, plasma, oral, 5 mg/kg, 5 mg/kg i.g. vs 2 mg/kg i.v., read-out: F (oral bioavailability)) was roughly 3.57%. For the same molecule, the Cmax [11, 15] was 389 ± 87.9 nM, the MRT last [11, 15] was 51 ± 6 min and the AUC(0-t) [11, 16] was roughly 0.293 µM·h. For the same molecule, the Tmax [11, 16] was roughly 15 min and the half-life [11, 16] was roughly 50.4 min.
